Values after ≈ are worked out from the molar mass of the structure shown. Like-named read-outs stand apart in the source and are kept apart here.
Assays:
S. aureus GC 4536 = assay: MIC, broth microdilution; settings: Staphylococcus aureus, GC4536, S. aureus GC 4536
S. pneumoniae+ GC 4465 = assay: MIC, broth microdilution; settings: Streptococcus pneumoniae, S. pneumoniae+ GC 4465
S. epidermidis GC 4935 = assay: MIC, broth microdilution; settings: Staphylococcus epidermidis, GC4935, S. epidermidis GC 4935
S. pneumoniae* GC 4465 = assay: MIC, broth microdilution; settings: Streptococcus pneumoniae, S. pneumoniae* GC 4465
E. coli GC 6465 = assay: MIC, broth microdilution; settings: Escherichia coli, GC6465, E. coli GC 6465
E. faecalis GC 4555 = assay: MIC, broth microdilution; settings: Enterococcus faecalis, GC4555, E. faecalis GC 4555
S. aureus GC 1079 = assay: MIC, broth microdilution; settings: Staphylococcus aureus, GC1079, S. aureus GC 1079
S. aureus GC 6467 = assay: MIC, broth microdilution; settings: Staphylococcus aureus, GC6467, S. aureus GC 6467
S. aureus GC 1131 = assay: MIC, broth microdilution; settings: Staphylococcus aureus, GC1131, S. aureus GC 1131
E. coli GC 2272 = assay: MIC, broth microdilution; settings: Escherichia coli, GC2272, E. coli GC 2272
E. coli GC 2235 = assay: MIC, broth microdilution; settings: Escherichia coli, GC2235, E. coli GC 2235
E. coli GC 4559 = assay: MIC, broth microdilution; settings: Escherichia coli, GC4559, E. coli GC 4559
E. faecalis GC 2267 = assay: MIC, broth microdilution; settings: Enterococcus faecalis, GC2267, E. faecalis GC 2267
c. albicans GC 3066 = assay: MIC, broth microdilution
E. faecalis GC 2242 = assay: MIC, broth microdilution; settings: Enterococcus faecalis, GC2242, E. faecalis GC 2242
E. coli GC 1073 = assay: MIC, broth microdilution; settings: Escherichia coli, GC1073, E. coli GC 1073
E. coli GC 4560 = assay: MIC, broth microdilution; settings: Escherichia coli, GC4560, E. coli GC 4560
S. agalactiae GC 4564 = assay: MIC, broth microdilution
S. typhimurium GC 2172 = assay: MIC, broth microdilution; settings: Salmonella enterica, TYPHIMURIUM, S. typhimurium GC 2172
Staph. aureus Smith = assay: In vivo activity (oral, iv; ED50) against Staph. aureus Smith in mice
Description: Representative examples of compounds of Formula I were tested for the oral efficacy using S. aureus Smith in mice.

[1] = c. albicans GC 3066, Water pre-incubation
[2] = S. agalactiae GC 4564, Water pre-incubation
[3] = Streptococcus agalactiae, GC4564
[4] = Staphylococcus aureus, in Mus musculus, po, read-out: ED50 Staph Smith SOD
[5] = iv, read-out: ED50 Staph Smith SIV

SMILES	MIC (S. aureus GC 4536; Mouse Serum pre-incubation) [µg/mL]	MIC (S. aureus GC 4536; Water pre-incubation) [µg/mL]	MIC (S. pneumoniae+ GC 4465; Mouse Serum pre-incubation) [µg/mL]	MIC (S. pneumoniae+ GC 4465; Water pre-incubation) [µg/mL]	MIC (S. epidermidis GC 4935; Mouse Serum pre-incubation) [µg/mL]	MIC (S. epidermidis GC 4935; Water pre-incubation) [µg/mL]	MIC (S. pneumoniae* GC 4465; Mouse Serum pre-incubation) [µg/mL]	MIC (S. pneumoniae* GC 4465; Water pre-incubation) [µg/mL]	MIC (E. coli GC 6465; Mouse Serum pre-incubation) [µg/mL]	MIC (E. coli GC 6465; Water pre-incubation) [µg/mL]	MIC (E. faecalis GC 4555; Mouse Serum pre-incubation) [µg/mL]	MIC (E. faecalis GC 4555; Water pre-incubation) [µg/mL]	MIC (S. aureus GC 1079; Mouse Serum pre-incubation) [µg/mL]	MIC (S. aureus GC 1079; Water pre-incubation) [µg/mL]	MIC (S. aureus GC 6467; Mouse Serum pre-incubation) [µg/mL]	MIC (S. aureus GC 6467; Water pre-incubation) [µg/mL]	MIC (S. aureus GC 1131; Mouse Serum pre-incubation) [µg/mL]	MIC (S. aureus GC 1131; Water pre-incubation) [µg/mL]	MIC (E. coli GC 2272; Mouse Serum pre-incubation) [µg/mL]	MIC (E. coli GC 2272; Water pre-incubation) [µg/mL]	further results
CCCN(CC(=O)Nc1cc(N(C)C)c2c(c1O)C(=O)C1=C(O)[C@]3(O)C(=O)C(C(N)=O)=C(O)[C@@H](N(C)C)[C@@H]3C[C@@H]1C2)C(=O)OCOC(=O)Cc1ccccc1 [Example 11, ({[(2-{[(5aR,6aS,7S,10aS)-9-(aminocarbonyl)-4,7-bis(dimethylamino)-1,8,10a,11′-tetrahydroxy-10,12-dioxo-5,5a,6,6a,7,10,10a,12-octahydrotetracen-2-yl]amino}-2-oxoethyl)(propyl)amino]carbonyl}oxy)methyl phenylacetate]	0.5 (≈ 0.655 µM)	0.5 (≈ 0.655 µM)	2 (≈ 2.62 µM)	2 (≈ 2.62 µM)	1 (≈ 1.31 µM)	2 (≈ 2.62 µM)	< 0.06	< 0.06	8 (≈ 10.5 µM)	> 64	0.5 (≈ 0.655 µM)	1 (≈ 1.31 µM)	2 (≈ 2.62 µM)	4 (≈ 5.24 µM)	4 (≈ 5.24 µM)	4 (≈ 5.24 µM)	0.25 (≈ 0.327 µM)	0.25 (≈ 0.327 µM)	0.25 (≈ 0.327 µM)	4 (≈ 5.24 µM)	MIC (E. coli GC 2235; Mouse Serum pre-incubation): 0.25 µg/mL (≈ 0.327 µM); MIC (E. coli GC 2235; Water pre-incubation): 4 µg/mL (≈ 5.24 µM); MIC (E. coli GC 4559; Mouse Serum pre-incubation): 0.5 µg/mL (≈ 0.655 µM); MIC (E. coli GC 4559; Water pre-incubation): 32 µg/mL (≈ 41.9 µM); MIC (E. faecalis GC 2267; Mouse Serum pre-incubation): 2 µg/mL (≈ 2.62 µM); MIC (E. faecalis GC 2267; Water pre-incubation): 2 µg/mL (≈ 2.62 µM); MIC (c. albicans GC 3066; Candida albicans, GC3066): > 64 µg/mL; MIC (c. albicans GC 3066; [1]): >64 UG/ML; MIC (E. faecalis GC 2242; Mouse Serum pre-incubation): 0.25 µg/mL (≈ 0.327 µM); MIC (E. faecalis GC 2242; Water pre-incubation): 0.5 µg/mL (≈ 0.655 µM); MIC (E. coli GC 1073; Mouse Serum pre-incubation): 0.5 µg/mL (≈ 0.655 µM); MIC (E. coli GC 1073; Water pre-incubation): 16 µg/mL (≈ 20.9 µM); MIC (E. coli GC 4560; Mouse Serum pre-incubation): 0.12 µg/mL (≈ 0.157 µM); MIC (E. coli GC 4560; Water pre-incubation): 0.12 µg/mL (≈ 0.157 µM); MIC (S. agalactiae GC 4564; [2]): <0.06 UG/ML; MIC (S. agalactiae GC 4564; [3]): < 0.06 µg/mL; MIC (S. typhimurium GC 2172; Mouse Serum pre-incubation): 4 µg/mL (≈ 5.24 µM); MIC (S. typhimurium GC 2172; Water pre-incubation): > 64 µg/mL; ED50 (Staph. aureus Smith; [4]): 30.3 mg/kg; ED50 (Staph. aureus Smith; [5]): 0.59 mg/kg
CCCCN(CC(=O)Nc1cc(N(C)C)c2c(c1O)C(=O)C1=C(O)[C@]3(O)C(=O)C(C(N)=O)=C(O)[C@@H](N(C)C)[C@@H]3C[C@@H]1C2)C(=O)OCOC(=O)Cc1ccccc1 [Example 12, ({[(2-{[(5aR,6aS,7S,10aS)-9-(aminocarbonyl)-4,7-bis(dimethylamino)-1,8,10a,11-tetrahydroxy-10,12-dioxo-5,5a,6,6a,7,10,10a,12-octahydrotetracen-2-yl]amino}-2-oxoethyl)(butyl)amino]carbonyl}oxy)methyl phenylacetate]	1 (≈ 1.29 µM)	2 (≈ 2.57 µM)	4 (≈ 5.14 µM)	8 (≈ 10.3 µM)	4 (≈ 5.14 µM)	8 (≈ 10.3 µM)	< 0.06	0.12 (≈ 0.154 µM)	8 (≈ 10.3 µM)	> 64	0.5 (≈ 0.643 µM)	4 (≈ 5.14 µM)	2 (≈ 2.57 µM)	8 (≈ 10.3 µM)	4 (≈ 5.14 µM)	16 (≈ 20.6 µM)	1 (≈ 1.29 µM)	2 (≈ 2.57 µM)	1 (≈ 1.29 µM)	16 (≈ 20.6 µM)	MIC (E. coli GC 2235; Mouse Serum pre-incubation): 1 µg/mL (≈ 1.29 µM); MIC (E. coli GC 2235; Water pre-incubation): 16 µg/mL (≈ 20.6 µM); MIC (E. coli GC 4559; Mouse Serum pre-incubation): 1 µg/mL (≈ 1.29 µM); MIC (E. coli GC 4559; Water pre-incubation): 64 µg/mL (≈ 82.3 µM); MIC (E. faecalis GC 2267; Mouse Serum pre-incubation): 2 µg/mL (≈ 2.57 µM); MIC (E. faecalis GC 2267; Water pre-incubation): 8 µg/mL (≈ 10.3 µM); MIC (c. albicans GC 3066; Candida albicans, GC3066): > 64 µg/mL; MIC (c. albicans GC 3066; [1]): >64 UG/ML; MIC (E. faecalis GC 2242; Mouse Serum pre-incubation): 2 µg/mL (≈ 2.57 µM); MIC (E. faecalis GC 2242; Water pre-incubation): 4 µg/mL (≈ 5.14 µM); MIC (E. coli GC 1073; Mouse Serum pre-incubation): 1 µg/mL (≈ 1.29 µM); MIC (E. coli GC 1073; Water pre-incubation): 64 µg/mL (≈ 82.3 µM); MIC (E. coli GC 4560; Mouse Serum pre-incubation): 0.25 µg/mL (≈ 0.321 µM); MIC (E. coli GC 4560; Water pre-incubation): 1 µg/mL (≈ 1.29 µM); MIC (S. agalactiae GC 4564; [2]): 0.25 UG/ML; MIC (S. agalactiae GC 4564; [3]): 0.25 µg/mL (≈ 0.321 µM); MIC (S. typhimurium GC 2172; Mouse Serum pre-incubation): 4 µg/mL (≈ 5.14 µM); MIC (S. typhimurium GC 2172; Water pre-incubation): > 64 µg/mL; ED50 (Staph. aureus Smith; [4]): 15 mg/kg; ED50 (Staph. aureus Smith; [5]): 1 mg/kg
